Measurements taken from patent publication US20200337993A1, “INTRACANALICULAR HYDROGEL INSERTS FOR THE DELIVERY OF ANESTHETICS” (Ocular Therapeutix, Inc., priority 2019, published 2020).
Where two headings read alike, the source gives them in different places.

Experiments:
[1] = Bupivacaine concentrations in tear fluid after intracanalicular administration (LC/MS of Schirmer strip samples); format: in vivo, beagle dogs; settings: female, beagle, dog, other: intracanalicular, 160 μg; for concentration at 2 day: Day 2, N=3, intracanalicular Inventive Composition insert; for concentration at 3 day: Day 3, N=6, intracanalicular Inventive Composition insert; for concentration at 4 day: Day 4, N=6, intracanalicular Inventive Composition insert; for concentration at 5 day: Day 5, N=3, intracanalicular Inventive Composition insert
Procedure: Corneal wounds were created in both eyes (OU) of ten female beagle dogs on Day 0 using epithelial debridement. Animals were post-operatively monitored and treated with eye drops. The Inventive Composition (IC) containing approximately 160 μg of bupivacaine was inserted into the lower or upper lid punctum of one eye of all ten dogs on Day 0 after corneal wounding and removed on Day 7 after wounding. Clinical ophthalmic examinations (slit-lamp biomicroscopy) were conducted daily on weekdays through Day 7. Fluorescein staining was performed and slit-lamp photographs were taken on Days 0, 3, 5, and 7 (Group 1) or on Days 0, 2, 4, and 7 (Group 2). Corneal esthesiometry was performed at baseline and on Days 0, 3-7, 10-14, 31-35, and 38-42 (Group 1) or on Days 0-4, 7-11, 14, 28-32, and 35-39 (Group 2). General health observations and gross ocular observations were performed daily from Day 1 through Day 11 (Group 1) or Day 8 (Group 2). Body weights were recorded prior to dosing and on Day 7. Tears were collected on Days 3, 4, and 5 (Group 1) or on Days 1, 2, 3, and 4 (Group 2). The two groups were staggered in order to collect tear film samples on days 1, 2, 3, 4 and 5 using Schirmer test strips. Tear film samples were collected in the morning prior to administration of drops, in order to avoid dilution of the samples. Pre and post weights were collected on the tear film strips, and samples were sent to PharmOptima, LLC (Portage, Mich.) for bioanalysis via LC/MS. The PK portion of the study measured concentrations of bupivacaine released from the Inventive Composition into the tear fluid over 5 days following intracanalicular administration in beagle dogs and results are presented in Table 3. Tear fluid samples were collected pre-drop administration to prevent dilution of the bupivacaine concentrations. The PK profile indicates elevated concentrations of bupivacaine in the tear fluid through 4 days with a decrease observed at 5 days.

[2] = In vitro release of bupivacaine from the Inventive Composition in PBS, pH 7.4 at 37° C.; format: physicochemical
[3] = read-out: Bupivacaine concentration in tear fluid, Average
[4] = read-out: Bupivacaine concentration in tear fluid, Maximum
[5] = read-out: Bupivacaine concentration in tear fluid, Median
[6] = read-out: Bupivacaine concentration in tear fluid, Minimum

## CCCCN1CCCCC1C(=O)Nc1c(C)cccc1C (stereo not shown) [Bupivacaine, bupivacaine]
[1]; Day 1, N=3, intracanalicular Inventive Composition insert (approx. 160 μg bupivacaine), Groups 1 and 2, read-out: Bupivacaine concentration in tear fluid, Average
  concentration at 1 day: 780 ng/mL
[1]; Day 1, N=3, intracanalicular Inventive Composition insert, read-out: Bupivacaine concentration in tear fluid, Maximum
  concentration at 1 day: 1520 ng/mL
[1]; Day 1, N=3, intracanalicular Inventive Composition insert, read-out: Bupivacaine concentration in tear fluid, Median
  concentration at 1 day: 550 ng/mL
[1]; Day 1, N=3, intracanalicular Inventive Composition insert, read-out: Bupivacaine concentration in tear fluid, Minimum
  concentration at 1 day: 280 ng/mL
[1]; [3]
  concentration at 2 day: 380 ng/mL
  concentration at 3 day: 740 ng/mL
  concentration at 4 day: 570 ng/mL
  concentration at 5 day: 250 ng/mL
[1]; [4]
  concentration at 2 day: 770 ng/mL
  concentration at 3 day: 1520 ng/mL
  concentration at 4 day: 1180 ng/mL
  concentration at 5 day: 430 ng/mL
[1]; [5]
  concentration at 2 day: 230 ng/mL
  concentration at 3 day: 590 ng/mL
  concentration at 4 day: 450 ng/mL
  concentration at 5 day: 230 ng/mL
[1]; [6]
  concentration at 2 day: 150 ng/mL
  concentration at 3 day: 100 ng/mL
  concentration at 4 day: 80 ng/mL
  concentration at 5 day: 100 ng/mL
[2]; in vitro sampling period 0-1 hours (burst phase)
  Bupivacaine Release Rate: 14.6 µg/h
[2]; in vitro sampling period 1-18 hours
  Bupivacaine Release Rate: 3.4 µg/h
[2]; in vitro sampling period 18-26 hours
  Bupivacaine Release Rate: 1.5 µg/h
[2]; in vitro sampling period 26-42 hours
  Bupivacaine Release Rate: 1.1 µg/h
[2]; in vitro sampling period 42-68 hours
  Bupivacaine Release Rate: 1.0 µg/h
[2]; in vitro sampling period 68-93 hours
  Bupivacaine Release Rate: 0.6 µg/h
[2]; in vitro sampling period 93-115 hours
  Bupivacaine Release Rate: 0.4 µg/h
[2]; in vitro sampling period 115-168 hours
  Bupivacaine Release Rate: 0.1 µg/h
